According to US6936602B1, “Benzazepine derivatives, process for the preparation of the same and uses thereof” (Takeda Chemical Industries, Ltd., priority 1999, dated 2005):

What follows are compounds tested against T1, human CCR5 (Homo sapiens, UniProt P51681) (assay: Evaluation of test compounds based on CCR5 antagonistic activity: inhibition of [125I]-RANTES binding to CCR5/CHO cells). Conditions: Test Compound 1 μM, 100 pM [125I]-RANTES, room temperature for 40 minutes.
T1 construct: expressed in transfected cells
Description: Cloning of CCR5 gene was carried out by a PCR method from human spleen cDNA. With using 0.5 ng of spleen cDNA (Toyobo, QUICK-Clone cDNA) as template, PCR was performed in DNA Thermal Cycler 480 (Perkin-Elmer) (reaction conditions: 30 cycles of 95° C. for 1 minute, 60° C. for 1 minute, and 75° C. for 5 minutes) by adding each 25 pmol of primers of a primer set, • SEQ ID NO.: 1 described in Test Example (1) of WO 99/32100 [length of sequence: 34; type of sequence: nucleic acid; strandedness: single; topology: straight; kind of sequence: other nucleic acid synthetic DNA, and • SEQ ID NO.: 2 described in Test Example (1) of WO 99/32100 [length of sequence: 34; type of sequence: nucleic acid; strandedness: single; topology: straight; kind of sequence: other nucleic acid synthetic DNA which were designed referring to nucleotide sequence of CCR5 gene reported by Samson et. al. (Biochemistry, 35(11), 3362-3367 (1996)) and by using TaKaRa EX Taq (Takara Shuzo). The resultant PCR product was subjected to agarose gel electrophoresis to collect about 1.0 kb DNA fragment, which was subjected to Original TA Cloning Kit (Funakoshi) to carry out cloning of CCR5 gene. (2) Preparation of Plasmid for Expression of Human CCR5
The plasmid obtained in the above (1) was digested with restriction enzymes XbaI (Takara Shuzo) and BamHI (Takara Shuzo) and subjected to agarose gel electrophoresis to collect about 1.0 kb DNA fragment.
The DNA fragment was mixed with plasmid pcDNA3.1 (Funakoshi) for expression in animal cells, said plasmid being digested with XbaI and BamHI, and they were ligated with DNA Ligation Kit Ver.2 (Takara Shuzo). The resulting plasmid was subjected to transformation of competent cell of E. coli JM109 (Takara Shuzo) to obtain plasmid pCKR5.
CHO-K1 cells were grown in 750 ml of tissue culture flask (Becton Dickinson) using Ham's F12 medium (Nihon Pharmaceutical) containing 10% fetal calf serum (Life Tech Oriental) and taken off with 0.5 g/L trypsin-0.2 g/L EDTA (Life Tech Oriental). The cells were washed with PBS (Life Tech Oriental), centrifuged (1000 rpm, 5 minutes), and suspended in PBS. With using Gene Pulser (Bio-Rad Laboratories), DNA was introduced into the cells under the conditions shown below. That is, to the cuvette of 0.4 cm gap were added 8×10^6 cells and 10 μg of plasmid pCKR5 for expression of human CCR5, and electroporation was carried out under 0.25 kV of voltage and 960 μF of capacitance. The cells were transferred into Ham's F12 medium containing 10% fetal calf serum, and cultivated for 24 hours. The cells were again taken off and centrifuged, and suspended in Ham's F12 medium containing 10% fetal calf serum and 500 μg/ml of geneticin (Life Tech Oriental). The suspension was diluted to give 10^4 cells/ml of the suspension, which was inoculated on a 96 well plate (Becton Dickinson) to give geneticin resistant cells.
The resulting geneticin resistant cells were cultivated in 96 well plate (Becton Dickinson), and cells expressing CCR5 were selected from the geneticin resistant cells. That is, in assay buffer (Ham's F12 medium containing 0.5% BSA and 20 mM HEPES (Wako Pure Chemical, pH7.2)) to which was added 200 pM of [^125I]-RANTES (Amersham) as a ligand, a binding reaction was carried out at room temperature for 46 minutes, and the buffer was washed with cooled PBS. To the buffer was added 50 μl/well of 1M NaOH, and the mixture was stirred. Radioactivity was determined with a y-counter to select CCR5/CHO cells which specifically bind to the ligand.
The CCR5/CHO cells were inoculated on 96 well microplate (5×10^4 cells/well) and cultivated for 24 hours. The medium was removed by means of suction, and to each well was added an assay buffer containing Test Compound (1 μM) and then 100 pM of [^125I]-RANTES (Amersham) as a ligand. A binding assay was carried out at room temperature for 40 minutes, and an assay buffer was removed by means of suction. […]

T1 sequence (P51681 whole entry): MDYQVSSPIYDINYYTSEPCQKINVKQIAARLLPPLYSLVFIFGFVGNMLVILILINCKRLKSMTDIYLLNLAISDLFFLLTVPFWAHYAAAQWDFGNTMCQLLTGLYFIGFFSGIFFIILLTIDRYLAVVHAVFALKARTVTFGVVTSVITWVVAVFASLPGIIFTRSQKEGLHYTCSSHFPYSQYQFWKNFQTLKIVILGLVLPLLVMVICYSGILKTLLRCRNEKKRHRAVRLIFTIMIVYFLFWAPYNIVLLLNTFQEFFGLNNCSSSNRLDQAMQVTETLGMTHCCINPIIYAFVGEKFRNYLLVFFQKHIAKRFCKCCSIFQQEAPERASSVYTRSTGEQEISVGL

`CCCCOCCOc1ccc(-c2ccc3c(c2)C=C(C(=O)Nc2ccc(CN(C)C4CCOCC4)cc2)CCN3CC(C)C)cc1` [Compound 85] was tested. Which “Inhibitory Rate (%)” value did it give?
The value was 100%.

With `CCCCOCCOc1ccc(-c2ccc3c(c2)C=C(C(=O)Nc2ccc(CN(C)C4CCOCC4)cc2)CCN3Cc2cncs2)cc1` [Compound 98] as the compound, how does the “Inhibitory Rate (%)” value read?
Its value is 100%.

Same assay, conditions: Test Compound 1 μM, 100 pM [125I]-RANTES, room temperature for 40 minutes, read-out: Inhibitory Rate (%)

Which inhibition at 1 µM does the source give for `CCCCOCCOc1ccc(-c2ccc3c(c2)C=C(C(=O)Nc2ccc(CN(C)C4CCOCC4)cc2)CCN3c2ccccc2)cc1` [Compound 39, 7-[4-(2-butoxyethoxy)phenyl]-1-phenyl-N-[4-[[N-methyl-N-(tetrahydro-2H-pyran-4-yl)amino]methyl]phenyl]-2,3-dihydro-1H-1-benzazepine-4-carboxamide] here?
The inhibition at 1 µM was 98%.

Which inhibition at 1 µM does the source give for `CCCCOCCOc1ccc(-c2ccc3c(c2)C=C(C(=O)Nc2ccc(CN(C)C4CCOCC4)cc2)CCN3c2ccc3c(c2)OCO3)cc1` [Compound 43, 7-[4-(2-butoxyethoxy)phenyl]-1-(3,4-methylenedioxyphenyl)-N-[4-[[N-methyl-N-(tetrahydro-2H-pyran-4-yl)amino)methyl]phenyl]-2,3-dihydro-1H-1-benzazepine-4-carboxamide] here?
Its inhibition at 1 µM is 100%.

Which inhibition at 1 µM does the source give for `CCCCOCCOc1ccc(-c2ccc3c(c2)C=C(C(=O)Nc2ccc(CN(C)C4CCOCC4)cc2)CCN3Cc2nccs2)cc1` [Compound 68, 7-(4-butoxyethoxyphenyl)-N-[4-[[N-methyl-N-(tetrahydropyran-4-yl)amino]methyl]phenyl]-1-(thiazol-2-yl)methyl-2,3-dihydro-1-benzazepine-4-carboxamide] here?
Its inhibition at 1 µM is 95%.

Which inhibition at 1 µM does the source give for `CCCCOCCOc1ccc(-c2ccc3c(c2)C=C(C(=O)Nc2ccc(CN(C)C4CCOCC4)cc2)CCN3Cc2cnn(C)c2)cc1` [Compound 69, 7-(4-butoxyethoxyphenyl)-1-[(1-methylpyrazol-4-yl)methyl]-N-[4-[[N-methyl-N-(tetrahydropyran-4-yl)amino]methyl]phenyl]-2,3-dihydro-1-benzazepine-4-carboxamide] here?
Its inhibition at 1 µM is 100%.

With `CCCCOCCOc1ccc(-c2ccc3c(c2)C=C(C(=O)Nc2ccc(CN(C)C4CCOCC4)cc2)CCN3Cc2c(C)noc2C)cc1` [Compound 71, 7-(4-butoxyethoxyphenyl)-1-[(3,5-dimethylisoxazol-4-yl)methyl]-N-[4-[[N-methyl-N-(tetrahydropyran-4-yl)amino]methyl]phenyl]-2,3-dihydro-1-benzazepine-4-carboxamide] as the compound, how does the inhibition at 1 µM read?
Its inhibition at 1 µM is 100%.

For `CCCCOCCOc1ccc(-c2ccc3c(c2)C=C(C(=O)Nc2ccc(CN(C)C4CCCOC4)cc2)CCN3Cc2cc(C)ns2)cc1` (centres unmarked) [Compound 77, 7-(4-butoxyethoxyphenyl)-1-[(3-methylisothiazol-5-yl)methyl]-N-[4-[[N-methyl-N-(tetrahydropyran-5-yl)amino]methyl]phenyl]-2,3-dihydro-1-benzazepine-4-carboxamide], which inhibition at 1 µM is on record?
The inhibition at 1 µM was 97%.

Which inhibition at 1 µM does the source give for `CCCCOCCOc1ccc(-c2ccc3c(c2)C=C(C(=O)Nc2ccc(CN(C)C4CCCOC4)cc2)CCN3Cc2cnn(CC)c2)cc1` (centres unmarked) [Compound 79, 7-(4-butoxyethoxyphenyl)-1-[(1-ethylpyrazol-4-yl)methyl]-N-[4-[[N-methyl-N-(tetrahydropyran-5-yl)amino]methyl]phenyl]-2,3-dihydro-1-benzazepine-4-carboxamide] here?
The inhibition at 1 µM was 100%.

Which inhibition at 1 µM does the source give for `CCCOCCOc1ccc(-c2ccc3c(c2)C=C(C(=O)Nc2ccc(CN(C)C4CCOCC4)cc2)CCN3CC(C)C)cc1` [Compound 84, 1-isobutyl-N-[4-[N-methyl-N-(tetrahydropyran-4-yl)aminomethyl]phenyl]-7-[4-(2-propoxyethoxy)phenyl]-2,3-dihydro-1-benzazepine-4-carboxamide] here?
Its inhibition at 1 µM is 97%.

With `CCCCOCCOc1ccc(-c2ccc3c(c2)C=C(C(=O)Nc2ccc(CN(C)C4CCOCC4)cc2)CCN3Cc2nnn(C)n2)cc1` [Compound 102, 7-[4-(2-butoxyethoxy)phenyl]-N-[4-[N-methyl-N-(tetrahydropyran-4-yl)aminomethyl]phenyl]-1-(2-methyltetrazol-5-ylmethyl)-2,3-dihydro-1-benzazepine-4-carboxamide] as the compound, how does the inhibition at 1 µM read?
The inhibition at 1 µM was 100%.
